This experiment concerns the target PhoP (Mycobacterium tuberculosis, UniProt P71814). It counts as binding.

SMILES strings stand for the structures.

A word on the Kd: it is a measure of binding affinity in units of concentration. Lower therefore signals higher affinity.

`[N-]=[N+]=Nc1ccc(C(=O)CSC[C@H](NC(=O)CC[C@H](N)C(=O)O)C(=O)NCC(=O)O)cc1` [NCGC00093547] showed a Kd of 12.6 µM.
